{"source": "patent US12377176B2", "about": "“Cancer diagnostic imaging agents” (Technische Universität München, priority 2019, dated 2025)", "key": {"[1]": {"assay": "In vivo distribution of rhPSMA-7 isomers after rhPSMA7-rac: radio-HPLC and radio-TLC of blood, organ and urine samples", "parameters": "species or system mice", "method": "In order to quantify the relative uptake of each isomer (rhPSMA-7.1-7.4), a tumor-bearing male CB-17-SCID mouse was injected with the racemic mixture of rhPSMA-7 (180-280 MBq, SA=247-349 GBq/μmol, produced at the Klinikum rechts der Isar in a fully automated procedure). The animal was left under anesthesia for 30 min and sacrificed. Urine, blood, liver, kidneys and tumor were collected and processed to the hereafter described procedures. The urine sample was centrifuged for 5 min at 9000 rpm to yield a clear solution and directly subjected to radio-HPLC analysis. Blood was diluted to 1 mL with H2O and centrifuged twice at 13000 g for 5 min. The supernatant was collected and loaded on a Strata X cartridge (33 μm Polymeric Reversed Phase 500 mg, pre-conditioned with 5 mL MeOH, followed by 5 mL H2O). After washing with 5 mL H2O, the cartridge was eluted with a 6:4 mixture (v/v) of MeCN in H2O, supplemented with 1% TFA. The eluate was diluted with water and analysed by radio-HPLC. Tumour, kidneys and liver were homogenised using either a Potter-Elvehjem tissue grinder (Kontes Glass Co, Vineland, USA) or a MM-400 ball mill (Retsch GmbH, Haan, Germany).\nTumour and kidneys were separately homogenised in the tissue homogeniser with 1 mL of extraction buffer (850 μL 1 M HEPES pH7.4, 100 μL20 mM PMPA and 100 μL 1M NaCl) for 30 min. The resulting homogenate was collected and centrifuged at 13000 g for 5 min. Subsequently the supernatant was collected, centrifuged again (13000 g, 5 min) and loaded on a Strata X cartridge (33 μm Polymeric Reversed Phase 500 mg, pre-conditioned with 5 mL MeOH, followed by 5 mL H2O). After washing with 5 mL H2O, the cartridge was eluted with a 6:4 mixture (v/v) of MeCN in H2O, supplemented with 1% TFA. The eluate of each organ was diluted with water and analysed by radio-HPLC.\nThe organs (tumour, kidney, liver) were separately homogenised in a 2 mL tube together with 3 grinding balls (3 mm diameter) and 1 mL of extraction buffer (850 μL 1 M HEPES pH7.4, 100 μL 20 mM PMPA and 100 μL 1M NaCl) for 10 min at 30 Hz. The homogenate was centrifuged at 13000 g for 5 min and the supernatant was collected. Subsequently, the pellet was suspended in 1 mL of extraction buffer and homogenized again with the ball mill for 10 min at 30 Hz. After centrifugation (13000 g, 5 min), both supernatants were combined and loaded on a Strata X cartridge (33 μm Polymeric Reversed Phase 500 mg, pre-conditioned with 5 mL MeOH, followed by 5 mL H2O). After washing with 5 mL H2O, the cartridge was eluted with a 6:4 mixture (v/v) of MeCN in H2O, supplemented with 1% TFA. The eluate of each organ was diluted with water and analysed by radio-HPLC. […] Finally the ratios of the individual isomers were determined from the HPLC profiles of the extracted samples and compared to the ratios of the isomers from the quality control of the racemic mixture of rhPSMA-7. The decay corrected extraction- and cartridge loading-efficiency, as well as the overall extracted activity of the examined samples are given in table 2. The cartridge elution-efficiency was >99% for all experiments.\nRadio-TLC Analysis was carried out a) on urine samples by directly subjecting a small volume onto a TLC strip, b) by analysis of a small volume of the non-immobilized activity during the SPE process (the ‘breakthrough fraction’), and c) by analysis of a small volume of the cartridge eluates."}, "PSMA": {"target": "T1, PSMA (Homo sapiens, UniProt Q04609)", "T1 construct": "endogenous in cells; host or cells: LNCaP cells", "T1 sequence (Q04609 whole entry)": "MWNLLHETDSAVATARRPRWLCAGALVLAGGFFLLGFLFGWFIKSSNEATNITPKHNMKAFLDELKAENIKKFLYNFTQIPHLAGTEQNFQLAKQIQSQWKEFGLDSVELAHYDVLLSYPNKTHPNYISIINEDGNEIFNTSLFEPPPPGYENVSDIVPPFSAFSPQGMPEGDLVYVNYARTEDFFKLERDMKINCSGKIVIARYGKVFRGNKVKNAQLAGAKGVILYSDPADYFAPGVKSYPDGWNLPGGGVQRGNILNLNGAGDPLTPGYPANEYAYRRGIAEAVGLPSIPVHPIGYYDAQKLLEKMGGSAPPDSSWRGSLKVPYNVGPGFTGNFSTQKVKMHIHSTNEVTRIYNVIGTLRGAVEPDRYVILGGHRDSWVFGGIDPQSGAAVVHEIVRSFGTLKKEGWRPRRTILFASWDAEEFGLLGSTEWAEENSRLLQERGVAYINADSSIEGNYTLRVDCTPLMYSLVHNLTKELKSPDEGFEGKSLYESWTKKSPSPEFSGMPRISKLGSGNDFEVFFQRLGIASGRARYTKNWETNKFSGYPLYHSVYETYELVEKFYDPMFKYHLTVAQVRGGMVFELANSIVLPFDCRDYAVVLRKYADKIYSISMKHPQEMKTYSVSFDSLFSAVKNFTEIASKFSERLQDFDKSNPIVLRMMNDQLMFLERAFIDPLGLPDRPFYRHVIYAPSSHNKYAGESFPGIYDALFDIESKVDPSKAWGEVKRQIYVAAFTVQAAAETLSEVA", "assay": "Determination of IC50: PSMA affinity, competition with ([125I]I-BA)KuE on LNCaP cells", "format": "binding", "conditions": "LNCaP cells, [125I]IB-KuE 0.2 nM, 1 h, 4 °C", "method": "After removal of the culture medium, the cells were treated once with 500 μL of HBSS (Hank's balanced salt solution, Biochrom, Berlin, Germany, with addition of 1% bovine serum albumin (BSA)) and left 15 min on ice for equilibration in 200 μL HBSS (1% BSA). […] Quantification of bound and free radioligand was accomplished in a γ-counter."}, "LNCaP cells": {"system": "LNCaP cells", "assay": "Internalization into LNCaP cells, relative to ([125I]I-BA)KuE", "format": "cell-based", "method": "Data is corrected for non-specific binding ([…]) and expressed as mean±SD (n=3).\nSubsequent to the removal of the culture medium, the cells were washed once with 500 μL DMEM-F12 (5% BSA) and left to equilibrate for at least 15 min at 37° C. in 200 μL DMEM-F12 (5% BSA). Each well was treated with either 25 μL of either DMEM-F12 (5% BSA) or a 100 μM PMPA solution for blockade. Next, 25 μL of the ^68Ga/^18F-labeled PSMA inhibitor (5.0 nM) was added and the cells incubated at 37° C. for 60 min. The experiment was terminated by placing the 24-well plate on ice for 3 min and consecutive removal of the medium. Each well was rinsed with 250 μL HBSS and the fractions from these first two steps combined, representing the amount of free radioligand. Removal of surface bound activity was accomplished by incubation of the cells with 250 μL of ice-cold PMPA (10 μM in PBS) solution for 5 min and rinsed again with another 250 μL of ice-cold PBS. The internalized activity was determined by incubation of the cells in 250 μL 1 M NaOH and the combination with the fraction of a subsequent wash step with 250 μL 1.0 M NaOH. Each experiment (control and bloackde) was performed in triplicate. Free, surface bound and internalized activity was quantified in a γ-counter. […] Data were corrected for non-specific internalization and normalized to the specific-internalization observed for the radioiodinated reference compound."}, "[2]": {"system": "LNCaP tumor-bearing CB-17 SCID mice", "conditions": "male, mouse, in vivo, 1 h", "experimental": "To establish tumor xenografts, LNCaP cells (10^7 cells/200 μL) were suspended in a 1:1 mixture (v/v) of Dulbecco modified Eagle medium/Nutrition Mixture F-12 with Glutamax-I (1:1) and Matrigel (BD Biosciences, Germany), and inoculated subcutaneously onto the right shoulder of 6-8 weeks old CB17-SCID mice (Charles River, Sulzfeld, Germany). Mice were used for when tumors had grown to a diameter of 5-8 mm (3-4 weeks after inoculation).\nApproximately 1-2 MBq (<0.2 nmol) of the ^18F-labeled PSMA inhibitor was injected into the tail vein of LNCaP tumor-bearing male CB-17 SCID mice and sacrificed after 1 h post injection (n=4-5). Selected organs were removed, weighted and measured in a γ-counter"}, "[3]": {"conditions": "Phosphoimager, Blood, 30 min p.i."}, "[4]": {"conditions": "Phosphoimager, Kidney, 30 min p.i."}, "[5]": {"conditions": "Phosphoimager, Tumor, 30 min p.i."}, "[6]": {"conditions": "Phosphoimager, Urine, 30 min p.i., listed as [^18F]rhPSMA7-rac"}, "[7]": {"conditions": "TLC Scanner, Kidney, tumor bearing mice 30 min p.i., listed as [^18F]rhPSMA7-rac"}}, "note": "Values joined by “and” are separate entries in the source; they are usually repeats but may differ in a detail not shown here. Equal values may be shown once. Read-outs that look alike come from different tables or passages of the source. Marks after values point to notes of the source that are not given here."}
{"compound": "[^19F][^natGa]D/L-Dap-R/S-DOTAGA-rhPSMA7 [rhPSMA7-rac]", "values": [{"measurement": "Intact tracer", "setting": "[1]; [3]", "value": "96.80^ %"}, {"measurement": "^18F-Fluoride", "setting": "[1]; [3]", "value": "3.20^ %"}, {"measurement": "Intact tracer", "setting": "[1]; [4]", "value": "96.48^ %"}, {"measurement": "^18F-Fluoride", "setting": "[1]; [4]", "value": "3.52^ %"}, {"measurement": "Intact tracer", "setting": "[1]; Phosphoimager, Liver, 30 min p.i., listed as [^18F]rhPSMA7-rac", "value": "93.92^# % and 74.15^# %"}, {"measurement": "Intact tracer", "setting": "[1]; [5]", "value": "96.47^ %"}, {"measurement": "^18F-Fluoride", "setting": "[1]; [5]", "value": "4.15^ %"}, {"measurement": "Intact tracer", "setting": "[1]; [6]", "value": "98.55^ % and 95.85^ %"}, {"measurement": "^18F-Fluoride", "setting": "[1]; [6]", "value": "1.55^ % and 4.15^ %"}, {"measurement": "Intact tracer", "setting": "[1]; [7]", "value": "94.04% and 94.58%"}, {"measurement": "^18F-Fluoride", "setting": "[1]; [7]", "value": "5.96% and 5.42%"}, {"measurement": "Intact tracer", "setting": "[1]; TLC Scanner, Urine, tumor bearing mice 30 min p.i., listed as [^18F]rhPSMA7-rac", "value": "82.51% and 96.2%"}]}
{"compound": "CC(C)(C)[Si](F)(c1ccc(C(=O)NC[C@@H](NC(=O)CC[C@@H](C(=O)O)N2CCN(CC(=O)O)CCN(CC(=O)O)CCN(CC(=O)O)CC2)C(=O)N[C@H](CCCCNC(=O)CCC(=O)NCCC[C@@H](NC(=O)CC[C@H](NC(=O)N[C@@H](CCC(=O)O)C(=O)O)C(=O)O)C(=O)O)C(=O)O)cc1)C(C)(C)C", "note": "[rhPSMA7.3, [^19F][^natGa]D-Dap-S-DOTAGA-rhPSMA7, metal not drawn]", "values": [{"measurement": "IC50", "setting": "PSMA; HBSS+1% BSA, single measurements, read-out: individual IC50 measurements", "value": "3.17 nM and 2.91 nM and 5.35 nM and 5.74 nM and 4.59 nM and 4.45 nM"}, {"measurement": "IC50", "setting": "PSMA; mean of the individual measurements, read-out: IC50 Mean", "value": 4.37, "unit": "nM"}, {"measurement": "internalization rate Mean", "setting": "LNCaP cells; LNCaP cells, 1 h, 37 °C, c=0.5 nM, mean", "value": "161.41 % of [^125I]IB-KuE"}, {"measurement": "individual internalization rates", "setting": "LNCaP cells; LNCaP cells, 1 h, 37 °C, c=0.5 nM, single measurements", "value": "156.6 % of [^125I]IB-KuE and 156.0 % of [^125I]IB-KuE and 171.7 % of [^125I]IB-KuE"}, {"measurement": "internalization", "setting": "LNCaP cells; mean ± SD as quoted in the discussion", "value": "161.41%±8.88"}, {"measurement": "Biodistribution adrenals", "setting": "[2]", "value": "2.2 ± 0.83", "unit": "% ID/g"}, {"measurement": "Biodistribution blood", "setting": "[2]", "value": "0.96 ± 0.24", "unit": "% ID/g"}, {"measurement": "Biodistribution bone", "setting": "[2]", "value": "0.38 ± 0.32", "unit": "% ID/g"}, {"measurement": "Biodistribution heart", "setting": "[2]", "value": "0.87 ± 0.17", "unit": "% ID/g"}, {"measurement": "Biodistribution intestine", "setting": "[2]", "value": "0.35 ± 0.07", "unit": "% ID/g"}, {"measurement": "Biodistribution kidneys", "setting": "[2]", "value": "292 ± 45.1", "unit": "% ID/g"}, {"measurement": "Biodistribution liver", "setting": "[2]", "value": "0.69 ± 0.13", "unit": "% ID/g"}, {"measurement": "Biodistribution lung", "setting": "[2]", "value": "2.2 ± 0.35", "unit": "% ID/g"}, {"measurement": "Biodistribution muscle", "setting": "[2]", "value": "0.33 ± 0.15", "unit": "% ID/g"}, {"measurement": "Biodistribution pancreas", "setting": "[2]", "value": "0.63 ± 0.44", "unit": "% ID/g"}, {"measurement": "Biodistribution spleen", "setting": "[2]", "value": "16.6 ± 2.6", "unit": "% ID/g"}, {"measurement": "Biodistribution stomach", "setting": "[2]", "value": "0.44 ± 0.23", "unit": "% ID/g"}, {"measurement": "Biodistribution tumor", "setting": "[2]", "value": "18.3 ± 7.2", "unit": "% ID/g"}]}
